According to patent publication US20030144249A1, “Use of organophosphorous compounds for producing a medicament for treating infections” (priority 2000, published 2003):
Where a name gives a salt, the structure may show the parent alone.

Assays:
[1] = molecular target: T1, DOXP reductoisomerase from Helicobacter pylori (Helicobacter pylori, UniProt P56139); assay: DOXP reductoisomerase inhibition (NADPH oxidation at 365 nm); format: biochemical
T1 construct: made in house; host or cells: Helicobacter pylori (so in the source)
T1 sequence (P56139 1-368): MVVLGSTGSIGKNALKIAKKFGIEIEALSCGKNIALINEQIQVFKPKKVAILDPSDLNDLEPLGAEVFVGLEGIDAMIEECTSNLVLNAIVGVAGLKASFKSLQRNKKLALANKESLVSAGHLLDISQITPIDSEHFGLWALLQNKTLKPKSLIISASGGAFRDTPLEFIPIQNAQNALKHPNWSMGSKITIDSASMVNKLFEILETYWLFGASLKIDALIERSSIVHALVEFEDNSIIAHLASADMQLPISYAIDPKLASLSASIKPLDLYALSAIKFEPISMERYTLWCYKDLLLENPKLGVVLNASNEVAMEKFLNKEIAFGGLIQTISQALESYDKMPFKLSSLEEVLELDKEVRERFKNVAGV
Experimental: The DOXP reductoisomerase of Helicobacter pylori was expressed as a recombinant protein in Helicobacter pylori. The activity of DOXP reductoisomerase was determined in a batch containing 100 mM tris-HCl (pH=7.5), 1 mM MnCl2, 0.3 mM NADPH and 1 mM DOXP.
The oxidation of NADPH was here measured at 365 nm in a spectrophotometer. The inhibition studies were performed by measuring the activity of DOXP reductoisomerase in the presence of compounds 1 to 8 (see page 5) at various concentrations between 0. 1 and 100 μmol l^−1.

Echinochloa = assay: Herbicidal activity, water, pre-emergence; format: in vivo; conditions: read-out: Herbicidal activity, Echinochloa
Experimental: (§1) Herbicidal activity is determined using standard methods.
(§2) Substances 1 to 8 listed on page 5 are again investigated.

Lepidium = assay: Herbicidal activity, water, pre-emergence; format: in vivo; conditions: read-out: Herbicidal activity, Lepidium
Experimental: as §1, §2

Solanum = assay: Herbicidal activity, water, pre-emergence; format: in vivo; conditions: read-out: Herbicidal activity, Solanum
Experimental: as §1, §2

Rice = assay: Herbicidal activity, water, pre-emergence; format: in vivo; conditions: Oryza sativa, read-out: Herbicidal activity, Rice
Experimental: as §1, §2

Beta vulgaris [2] = assay: Herbicidal activity, soil, post-emergence; format: in vivo; conditions: read-out: Herbicidal activity, Beta vulgaris
Experimental: as §1, §2

Setaria viridis [3] = assay: Herbicidal activity, soil, post-emergence; format: in vivo; conditions: read-out: Herbicidal activity, Setaria viridis
Experimental: as §1, §2

Cyperus esculentus [4] = assay: Herbicidal activity, soil, post-emergence; format: in vivo; conditions: read-out: Herbicidal activity, Cyperus esculentus
Experimental: as §1, §2

Avena fatua [5] = assay: Herbicidal activity, soil, post-emergence; format: in vivo; conditions: read-out: Herbicidal activity, Avena fatua
Experimental: as §1, §2

Zea mays [6] = assay: Herbicidal activity, soil, post-emergence; format: in vivo; conditions: read-out: Herbicidal activity, Zea mays
Experimental: as §1, §2

Galium aperine [7] = assay: Herbicidal activity, soil, post-emergence; format: in vivo; conditions: read-out: Herbicidal activity, Galium aperine
Experimental: as §1, §2

Amaranthus retroflexus [8] = assay: Herbicidal activity, soil, post-emergence; format: in vivo; conditions: read-out: Herbicidal activity, Amaranthus retroflexus
Experimental: as §1, §2

Sinapis arvensis [9] = assay: Herbicidal activity, soil, post-emergence; format: in vivo; conditions: Mutarda arvensis, read-out: Herbicidal activity, Sinapis arvensis
Experimental: as §1, §2

Alopecurus myosuroides [10] = assay: Herbicidal activity, soil, post-emergence; format: in vivo; conditions: read-out: Herbicidal activity, Alopecurus myosuroides
Experimental: as §1, §2

Abutilon theophrasti [11] = assay: Herbicidal activity, soil, post-emergence; format: in vivo; conditions: read-out: Herbicidal activity, Abutilon theophrasti
Experimental: as §1, §2

Xanthium strumarium [12] = assay: Herbicidal activity, soil, post-emergence; format: in vivo; conditions: read-out: Herbicidal activity, Xanthium strumarium
Experimental: as §1, §2

Beta vulgaris [13] = assay: Herbicidal activity, soil, pre-emergence; format: in vivo; conditions: read-out: Herbicidal activity, Beta vulgaris
Experimental: as §1, §2

Setaria viridis [14] = assay: Herbicidal activity, soil, pre-emergence; format: in vivo; conditions: read-out: Herbicidal activity, Setaria viridis
Experimental: as §1, §2

Cyperus esculentus [15] = assay: Herbicidal activity, soil, pre-emergence; format: in vivo; conditions: read-out: Herbicidal activity, Cyperus esculentus
Experimental: as §1, §2

Avena fatua [16] = assay: Herbicidal activity, soil, pre-emergence; format: in vivo; conditions: read-out: Herbicidal activity, Avena fatua
Experimental: as §1, §2

Zea mays [17] = assay: Herbicidal activity, soil, pre-emergence; format: in vivo; conditions: read-out: Herbicidal activity, Zea mays
Experimental: as §1, §2

Galium aperine [18] = assay: Herbicidal activity, soil, pre-emergence; format: in vivo; conditions: read-out: Herbicidal activity, Galium aperine
Experimental: as §1, §2

Amaranthus retroflexus [19] = assay: Herbicidal activity, soil, pre-emergence; format: in vivo; conditions: read-out: Herbicidal activity, Amaranthus retroflexus
Experimental: as §1, §2

Sinapis arvensis [20] = assay: Herbicidal activity, soil, pre-emergence; format: in vivo; conditions: Mutarda arvensis, read-out: Herbicidal activity, Sinapis arvensis
Experimental: as §1, §2

Alopecurus myosuroides [21] = assay: Herbicidal activity, soil, pre-emergence; format: in vivo; conditions: read-out: Herbicidal activity, Alopecurus myosuroides
Experimental: as §1, §2

Abutilon theophrasti [22] = assay: Herbicidal activity, soil, pre-emergence; format: in vivo; conditions: read-out: Herbicidal activity, Abutilon theophrasti
Experimental: as §1, §2

Xanthium strumarium [23] = assay: Herbicidal activity, soil, pre-emergence; format: in vivo; conditions: read-out: Herbicidal activity, Xanthium strumarium
Experimental: as §1, §2

## CN(CN(O)C(=O)C1CCCCC1)CP(C)(=O)O [Compound 3, N-((N-Cyclohexanoyl-N-hydroxy)aminomethyl)-N-methyl(aminomethylphosphinic acid, sodium salt]
[1]
  IC50: 170 nM
Echinochloa
  pest or weed control at 4000 g/ha: 50%
Lepidium
  pest or weed control at 4000 g/ha: 50%
Solanum
  pest or weed control at 4000 g/ha: 0%
Rice
  plant injury at 4000 g/ha: 40%
Beta vulgaris [2]
  plant injury at 2000 g/ha: 60%
Setaria viridis [3]
  pest or weed control at 2000 g/ha: 70%
Cyperus esculentus [4]
  pest or weed control at 2000 g/ha: 0%
Avena fatua [5]
  pest or weed control at 2000 g/ha: 70%
Zea mays [6]
  plant injury at 2000 g/ha: 70%
Galium aperine [7]
  pest or weed control at 2000 g/ha: 60%
Amaranthus retroflexus [8]
  pest or weed control at 2000 g/ha: 60%
Sinapis arvensis [9]
  pest or weed control at 2000 g/ha: 80%
Alopecurus myosuroides [10]
  pest or weed control at 2000 g/ha: 60%
Abutilon theophrasti [11]
  pest or weed control at 2000 g/ha: 60%
Xanthium strumarium [12]
  pest or weed control at 2000 g/ha: 60%
Beta vulgaris [13]
  plant injury at 2000 g/ha: 30%
Setaria viridis [14]
  pest or weed control at 2000 g/ha: 0%
Cyperus esculentus [15]
  pest or weed control at 2000 g/ha: 0%
Avena fatua [16]
  pest or weed control at 2000 g/ha: 0%
Zea mays [17]
  plant injury at 2000 g/ha: 0%
Galium aperine [18]
  pest or weed control at 2000 g/ha: 0%
Amaranthus retroflexus [19]
  pest or weed control at 2000 g/ha: 0%
Sinapis arvensis [20]
  pest or weed control at 2000 g/ha: 30%
Alopecurus myosuroides [21]
  pest or weed control at 2000 g/ha: 30%
Abutilon theophrasti [22]
  pest or weed control at 2000 g/ha: 0%
Xanthium strumarium [23]
  pest or weed control at 2000 g/ha: 0%

## CP(=O)(CNCN(O)C(=O)CCCN1CCOCC1)Oc1ccccc1 (stereo not drawn) [Compound 4, N-[(4-N-Morpholinobutanoyl-N-hydroxy)aminomethyl]aminomethyl(methyl)phosphinic acid phenyl ester]
[1]
  IC50: 110 nM
Echinochloa
  pest or weed control at 4000 g/ha: 70%
Lepidium
  pest or weed control at 4000 g/ha: 40%
Solanum
  pest or weed control at 4000 g/ha: 30%
Rice
  plant injury at 4000 g/ha: 30%
Beta vulgaris [2]
  plant injury at 2000 g/ha: 50%
Setaria viridis [3]
  pest or weed control at 2000 g/ha: 90%
Cyperus esculentus [4]
  pest or weed control at 2000 g/ha: 0%
Avena fatua [5]
  pest or weed control at 2000 g/ha: 70%
Zea mays [6]
  plant injury at 2000 g/ha: 70%
Galium aperine [7]
  pest or weed control at 2000 g/ha: 70%
Amaranthus retroflexus [8]
  pest or weed control at 2000 g/ha: 40%
Sinapis arvensis [9]
  pest or weed control at 2000 g/ha: 80%
Alopecurus myosuroides [10]
  pest or weed control at 2000 g/ha: 70%
Abutilon theophrasti [11]
  pest or weed control at 2000 g/ha: 50%
Xanthium strumarium [12]
  pest or weed control at 2000 g/ha: 90%
Beta vulgaris [13]
  plant injury at 2000 g/ha: 60%
Setaria viridis [14]
  pest or weed control at 2000 g/ha: 0%
Cyperus esculentus [15]
  pest or weed control at 2000 g/ha: 0%
Avena fatua [16]
  pest or weed control at 2000 g/ha: 60%
Zea mays [17]
  plant injury at 2000 g/ha: 30%
Galium aperine [18]
  pest or weed control at 2000 g/ha: 0%
Amaranthus retroflexus [19]
  pest or weed control at 2000 g/ha: 20%
Sinapis arvensis [20]
  pest or weed control at 2000 g/ha: 70%
Alopecurus myosuroides [21]
  pest or weed control at 2000 g/ha: 30%
Abutilon theophrasti [22]
  pest or weed control at 2000 g/ha: 0%
Xanthium strumarium [23]
  pest or weed control at 2000 g/ha: 0%

## CP(=O)(O)C(O)CNCN(O)C(=O)c1ccco1 (stereo not drawn) [Compound 5, 2-(N-2-Furanoyl-N-hydroxy-aminomethyl)amino-1-hydroxyethylmethylphosphinic acid, sodium salt]
[1]
  IC50: 130 nM
Echinochloa
  pest or weed control at 4000 g/ha: 80%
Lepidium
  pest or weed control at 4000 g/ha: 40%
Solanum
  pest or weed control at 4000 g/ha: 0%
Rice
  plant injury at 4000 g/ha: 40%
Beta vulgaris [2]
  plant injury at 2000 g/ha: 40%
Setaria viridis [3]
  pest or weed control at 2000 g/ha: 95%
Cyperus esculentus [4]
  pest or weed control at 2000 g/ha: 0%
Avena fatua [5]
  pest or weed control at 2000 g/ha: 80%
Zea mays [6]
  plant injury at 2000 g/ha: 80%
Galium aperine [7]
  pest or weed control at 2000 g/ha: 80%
Amaranthus retroflexus [8]
  pest or weed control at 2000 g/ha: 30%
Sinapis arvensis [9]
  pest or weed control at 2000 g/ha: 90%
Alopecurus myosuroides [10]
  pest or weed control at 2000 g/ha: 70%
Abutilon theophrasti [11]
  pest or weed control at 2000 g/ha: 40%
Xanthium strumarium [12]
  pest or weed control at 2000 g/ha: 60%
Beta vulgaris [13]
  plant injury at 2000 g/ha: 30%
Setaria viridis [14]
  pest or weed control at 2000 g/ha: 0%
Cyperus esculentus [15]
  pest or weed control at 2000 g/ha: 0%
Avena fatua [16]
  pest or weed control at 2000 g/ha: 0%
Zea mays [17]
  plant injury at 2000 g/ha: 0%
Galium aperine [18]
  pest or weed control at 2000 g/ha: 0%
Amaranthus retroflexus [19]
  pest or weed control at 2000 g/ha: 0%
Sinapis arvensis [20]
  pest or weed control at 2000 g/ha: 50%
Alopecurus myosuroides [21]
  pest or weed control at 2000 g/ha: 50%
Abutilon theophrasti [22]
  pest or weed control at 2000 g/ha: 0%
Xanthium strumarium [23]
  pest or weed control at 2000 g/ha: 0%

## O=CN(O)CNCP(=O)(O)O [Compound 8]
[1]
  IC50: 60 nM
Echinochloa
  pest or weed control at 2000 g/ha: 40%
Lepidium
  pest or weed control at 2000 g/ha: 30%
Solanum
  pest or weed control at 2000 g/ha: 30%
Rice
  plant injury at 2000 g/ha: 30%
Beta vulgaris [2]
  plant injury at 1000 g/ha: 50%
Setaria viridis [3]
  pest or weed control at 1000 g/ha: 90%
Cyperus esculentus [4]
  pest or weed control at 1000 g/ha: 0%
Avena fatua [5]
  pest or weed control at 1000 g/ha: 80%
Zea mays [6]
  plant injury at 1000 g/ha: 70%
Galium aperine [7]
  pest or weed control at 1000 g/ha: 70%
Amaranthus retroflexus [8]
  pest or weed control at 1000 g/ha: 50%
Sinapis arvensis [9]
  pest or weed control at 1000 g/ha: 70%
Alopecurus myosuroides [10]
  pest or weed control at 1000 g/ha: 80%
Abutilon theophrasti [11]
  pest or weed control at 1000 g/ha: 50%
Xanthium strumarium [12]
  pest or weed control at 1000 g/ha: 90%
Beta vulgaris [13]
  plant injury at 1000 g/ha: 40%
Setaria viridis [14]
  pest or weed control at 1000 g/ha: 0%
Cyperus esculentus [15]
  pest or weed control at 1000 g/ha: 0%
Avena fatua [16]
  pest or weed control at 1000 g/ha: 30%
Zea mays [17]
  plant injury at 1000 g/ha: 30%
Galium aperine [18]
  pest or weed control at 1000 g/ha: 0%
Amaranthus retroflexus [19]
  pest or weed control at 1000 g/ha: 20%
Sinapis arvensis [20]
  pest or weed control at 1000 g/ha: 30%
Alopecurus myosuroides [21]
  pest or weed control at 1000 g/ha: 30%
Abutilon theophrasti [22]
  pest or weed control at 1000 g/ha: 0%
Xanthium strumarium [23]
  pest or weed control at 1000 g/ha: 0%
